Literature values as cited in patent publication US20150230971A1, “MULTIPURPOSE DRUG DELIVERY SYSTEMS FOR LONG-TERM IMPLANTATION OR INSERTION” (PAT&CO BVBA, priority 2012, published 2015).

Tested on: rats and mice
Details: carcinomas and/or precursor lesions of oral cavity, lips, tongue, esophagus, forestomach

In the case of `C=COC(C)=O` [VAM, vinyl acetate monomer], the carcinogenicity is given as “increase in total malignant tumors”.
